Data as given in patent publication US20220281848A1, “PYRAZOLE-SUBSTITUTED PYRROLIDINONES AS HERBICIDES” (FMC Corporation, priority 2019, published 2022).

Tested on: plants
Experiment: Test D pre-emergence, other plants of Tables D1 and D3
Assay type: in vivo
Details: preemergent, 20 DAA
How it was run: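 Damage was rated visually from 0 (none) to 100 (total), at 20 DAA for pre-emergence and 15 d for post-emergence. Plants grew from safener-treated seed in a glasshouse at 24/18° C. or 20/16° C. day/night, 65% humidity, watered twice daily.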

COc1c(F)cccc1NC(=O)C1C(=O)N(C)CC1c1cc(C(F)(F)F)n(C)n1 (racemic) [Compound 18]
damage to plant (100=total damage to plant; 0=no damage to plant), ABUTH (rate 15): 0
damage to plant (100=total damage to plant; 0=no damage to plant), ABUTH (rate 30): 0
damage to plant (100=total damage to plant; 0=no damage to plant), ABUTH (rate 60): 0
damage to plant (100=total damage to plant; 0=no damage to plant), ABUTH (rate 130): 0
damage to plant (100=total damage to plant; 0=no damage to plant), ABUTH (rate 250): 10
damage to plant (100=total damage to plant; 0=no damage to plant), ABUTH (rate 500): 30
damage to plant (100=total damage to plant; 0=no damage to plant), AMARE (rate 15): 0
damage to plant (100=total damage to plant; 0=no damage to plant), AMARE (rate 30): 0
damage to plant (100=total damage to plant; 0=no damage to plant), AMARE (rate 60): 0
damage to plant (100=total damage to plant; 0=no damage to plant), AMARE (rate 130): 0
damage to plant (100=total damage to plant; 0=no damage to plant), AMARE (rate 250): 0
damage to plant (100=total damage to plant; 0=no damage to plant), AMARE (rate 500): 0
damage to plant (100=total damage to plant; 0=no damage to plant), BIDPI (rate 15): 0
damage to plant (100=total damage to plant; 0=no damage to plant), BIDPI (rate 30): 0
damage to plant (100=total damage to plant; 0=no damage to plant), BIDPI (rate 60): 0
damage to plant (100=total damage to plant; 0=no damage to plant), BIDPI (rate 130): 0
damage to plant (100=total damage to plant; 0=no damage to plant), BIDPI (rate 250): 0
damage to plant (100=total damage to plant; 0=no damage to plant), BIDPI (rate 500): 0
damage to plant (100=total damage to plant; 0=no damage to plant), BRAPL (rate 15): 10
damage to plant (100=total damage to plant; 0=no damage to plant), BRAPL (rate 30): 60
damage to plant (100=total damage to plant; 0=no damage to plant), BRAPL (rate 60): 70
damage to plant (100=total damage to plant; 0=no damage to plant), BRAPL (rate 130): 80
damage to plant (100=total damage to plant; 0=no damage to plant), BRAPL (rate 250): 80
damage to plant (100=total damage to plant; 0=no damage to plant), BRAPL (rate 500): 90
damage to plant (100=total damage to plant; 0=no damage to plant), CYPES (rate 15): 0
damage to plant (100=total damage to plant; 0=no damage to plant), CYPES (rate 30): 0
damage to plant (100=total damage to plant; 0=no damage to plant), CYPES (rate 60): 0
damage to plant (100=total damage to plant; 0=no damage to plant), CYPES (rate 130): 0
damage to plant (100=total damage to plant; 0=no damage to plant), CYPES (rate 250): 0
damage to plant (100=total damage to plant; 0=no damage to plant), CYPES (rate 500): 0
damage to plant (100=total damage to plant; 0=no damage to plant), DIGSA (rate 15): 0
damage to plant (100=total damage to plant; 0=no damage to plant), DIGSA (rate 30): 80
damage to plant (100=total damage to plant; 0=no damage to plant), DIGSA (rate 60): 90
damage to plant (100=total damage to plant; 0=no damage to plant), DIGSA (rate 130): 90
damage to plant (100=total damage to plant; 0=no damage to plant), DIGSA (rate 250): 90
damage to plant (100=total damage to plant; 0=no damage to plant), DIGSA (rate 500): 100
damage to plant (100=total damage to plant; 0=no damage to plant), ECHCG (rate 15): 0
damage to plant (100=total damage to plant; 0=no damage to plant), ECHCG (rate 30): 30
damage to plant (100=total damage to plant; 0=no damage to plant), ECHCG (rate 60): 70
damage to plant (100=total damage to plant; 0=no damage to plant), ECHCG (rate 130): 90
damage to plant (100=total damage to plant; 0=no damage to plant), ECHCG (rate 250): 90
damage to plant (100=total damage to plant; 0=no damage to plant), ECHCG (rate 500): 90
damage to plant (100=total damage to plant; 0=no damage to plant), ELEIN (rate 15): 0
damage to plant (100=total damage to plant; 0=no damage to plant), ELEIN (rate 30): 0
damage to plant (100=total damage to plant; 0=no damage to plant), ELEIN (rate 60): 0
damage to plant (100=total damage to plant; 0=no damage to plant), ELEIN (rate 130): 0
damage to plant (100=total damage to plant; 0=no damage to plant), ELEIN (rate 250): 0
damage to plant (100=total damage to plant; 0=no damage to plant), ELEIN (rate 500): 0
damage to plant (100=total damage to plant; 0=no damage to plant), EPHHL (rate 15): 0
damage to plant (100=total damage to plant; 0=no damage to plant), EPHHL (rate 30): 0
damage to plant (100=total damage to plant; 0=no damage to plant), EPHHL (rate 60): 0
damage to plant (100=total damage to plant; 0=no damage to plant), EPHHL (rate 130): 0
damage to plant (100=total damage to plant; 0=no damage to plant), EPHHL (rate 250): 10
damage to plant (100=total damage to plant; 0=no damage to plant), EPHHL (rate 500): 20
damage to plant (100=total damage to plant; 0=no damage to plant), GLXMA (rate 15): 0
damage to plant (100=total damage to plant; 0=no damage to plant), GLXMA (rate 30): 0
damage to plant (100=total damage to plant; 0=no damage to plant), GLXMA (rate 60): 0
damage to plant (100=total damage to plant; 0=no damage to plant), GLXMA (rate 130): 0
damage to plant (100=total damage to plant; 0=no damage to plant), GLXMA (rate 250): 0
damage to plant (100=total damage to plant; 0=no damage to plant), GLXMA (rate 500): 0
damage to plant (100=total damage to plant; 0=no damage to plant), IPOHE (rate 15): 0
damage to plant (100=total damage to plant; 0=no damage to plant), IPOHE (rate 30): 0
damage to plant (100=total damage to plant; 0=no damage to plant), IPOHE (rate 60): 0
damage to plant (100=total damage to plant; 0=no damage to plant), IPOHE (rate 130): 0
damage to plant (100=total damage to plant; 0=no damage to plant), IPOHE (rate 250): 0
damage to plant (100=total damage to plant; 0=no damage to plant), IPOHE (rate 500): 0
damage to plant (100=total damage to plant; 0=no damage to plant), ORYSA (rate 15): 0
damage to plant (100=total damage to plant; 0=no damage to plant), ORYSA (rate 30): 0
damage to plant (100=total damage to plant; 0=no damage to plant), ORYSA (rate 60): 0
damage to plant (100=total damage to plant; 0=no damage to plant), ORYSA (rate 130): 0
damage to plant (100=total damage to plant; 0=no damage to plant), ORYSA (rate 250): 0
damage to plant (100=total damage to plant; 0=no damage to plant), ORYSA (rate 500): 0
damage to plant (100=total damage to plant; 0=no damage to plant), PANMI (rate 15): 0
damage to plant (100=total damage to plant; 0=no damage to plant), PANMI (rate 30): 0
damage to plant (100=total damage to plant; 0=no damage to plant), PANMI (rate 60): 0
damage to plant (100=total damage to plant; 0=no damage to plant), PANMI (rate 130): 0
damage to plant (100=total damage to plant; 0=no damage to plant), PANMI (rate 250): 0
damage to plant (100=total damage to plant; 0=no damage to plant), PANMI (rate 500): 0
damage to plant (100=total damage to plant; 0=no damage to plant), SETFA (rate 15): 0
damage to plant (100=total damage to plant; 0=no damage to plant), SETFA (rate 30): 0
damage to plant (100=total damage to plant; 0=no damage to plant), SETFA (rate 60): 80
damage to plant (100=total damage to plant; 0=no damage to plant), SETFA (rate 130): 90
damage to plant (100=total damage to plant; 0=no damage to plant), SETFA (rate 250): 90
damage to plant (100=total damage to plant; 0=no damage to plant), SETFA (rate 500): 90
damage to plant (100=total damage to plant; 0=no damage to plant), SORVU (rate 15): 0
damage to plant (100=total damage to plant; 0=no damage to plant), SORVU (rate 30): 0
damage to plant (100=total damage to plant; 0=no damage to plant), SORVU (rate 60): 0
damage to plant (100=total damage to plant; 0=no damage to plant), SORVU (rate 130): 0
damage to plant (100=total damage to plant; 0=no damage to plant), SORVU (rate 250): 0
damage to plant (100=total damage to plant; 0=no damage to plant), SORVU (rate 500): 10
